Literature values, collected in patent publication US8188116B2, “Agents for therapy efficacy monitoring and deep tissue imaging” (Vanderbilt University, priority 2002, dated 2012).

Tested on: PBR
Details: in words, background statement

SMILES: COc1ccc(OC)c(CN(C(C)=O)c2cc(F)ccc2Oc2ccccc2)c1 [DAA1106]
- binding affinity for PBR: fentomolar
